The source of these data is a melting point compilation (Tetko et al.; mined from patent text by program, amines drawn as free bases though some values may be those of a salt).

The structures appear in SMILES notation.

For `CN(C)c1ccc2c(c1)CNC2=O`, the melting point lay in the range of 122 to 124 °C.

`O=C(O)c1cc(-c2ccc(Cl)cc2)nc(-c2ccc(Cl)c(Cl)c2)c1` returned a melting point of 303 to 304 °C.

In turn, `COc1ccccc1-n1c(=O)[nH]c2c(C(N)=O)nc(-c3cccc(C#N)c3)nc21` came in with a melting point of 316 to 318 °C.

Turning to `O=C(O)CCn1[nH]c(=O)c2ccccc2c1=O`, the melting point was in the range of 201 to 203 °C.

`CSc1nn2c(N3C[C@@H](C)N[C@@H](C)C3)cc(C)nc2c1S(=O)(=O)c1ccccc1` came in with a melting point of 220 to 221 °C.

For `NS(=O)(=O)c1cccc(NC(=O)NC2N=C(c3ccccc3F)c3ccccc3N(CC(=O)N3CC4CCC(CC4)C3)C2=O)c1` (racemic), the melting point is 221 to 226 °C.

Molecule `CNc1nc(NS(=O)(=O)c2ccc(N)cc2)cc(N2CCC2)n1` returned a melting point of 295 to 296 °C.

Regarding `COc1cccc(Sc2ccnc(Nc3cccc(CCO)c3)n2)c1`, the melting point fell in the range of 122 to 124 °C.

`O=C(O)c1ccc(-c2cnc(-c3ccc(Cl)cc3)o2)cc1`: the melting point lay in the range of 268 to 270 °C.

With `Nc1nccc2oc(I)cc12`, the melting point lay in the range of 170 to 173 °C.

Turning to `Cc1cc2c(c(C(C)(C)C)c1)OP(NC1CC(C)(C)N(C)C(C)(C)C1)Oc1c(cc(C)cc1C(C)(C)C)C2`, the melting point lay within 207 to 216 °C.

Molecule `N#Cc1ccc2[nH]cc(C=C[N+](=O)[O-])c2c1` yielded a melting point of 217 to 220 °C.

For `Cc1cnc2ccc(NC3=NCCN3)c(Br)c2n1`, the melting point was above 260 °C.

As to `CC(C)NCC(O)COc1ccc(OCCSCC2CC2)cc1` (configuration not stated), the melting point was determined as 86 °C.

`O=C(Nc1cc(Cl)c(O)c(Cl)c1)c1ccccc1O` showed a melting point of 217 to 219 °C.

The molecule `COc1cc(C(=O)c2ccccc2F)cc([N+](=O)[O-])c1O` showed a melting point of 127 to 129 °C.

Regarding `COc1ccc2c(c1OC)C(=O)c1ccccc1-2`, the melting point was 110 to 111 °C.

For the molecule `O=C(CC1CSCCC1=O)c1ccccc1` (configuration not stated), the melting point was in the range of 102 to 104 °C.

Molecule `COc1ccc(-n2c(S)nc3cc(OC)cc(OC)c3c2=O)cc1` came in with a melting point of 322 to 326 °C.

`CN(CCN1CCOCC1)Cc1ccc(COc2cccc3c2CN(C2CCC(=O)NC2=O)C3=O)cc1` (configuration not stated) returned a melting point of 193 to 195 °C.

As for `CN(C)CCCOc1cccc(N(C(=O)c2ccccc2)c2ccccc2)c1`, the melting point lay in the range of 77 to 81 °C.

`CCOCc1nc2c(N)nc(C)c(C)c2n1CCOCCCc1nccs1`: the melting point fell in the range of 91 to 92 °C.

For the molecule `COc1cc(O)cc(C(F)(F)F)c1`, the melting point stood at 75 °C.

In turn, `O=C(C(c1ccc(Cl)cc1)c1c(Cl)cc(-n2ncc(=O)[nH]c2=O)cc1Cl)N1CCCC1` (configuration not stated) came in with a melting point of 154 °C.

Consider `CCOC(=O)/C=C/c1cc(C(F)(F)F)ccc1C(=O)NCC(F)(F)F`, for which the melting point amounted to 162 °C.

In the case of `Clc1ccc(C2(CBr)OCC(COc3ccc(Cl)c4ccccc34)O2)c(Cl)c1` (configuration not stated), the melting point was determined as 123 °C.

The molecule `COc1cccc(CCN2C(=O)c3ccccc3C2(O)c2ccc(C(F)(F)F)cc2)c1` (configuration not stated) returned a melting point of 167 °C.

As for `Nc1ccc(C2Oc3cc4c(cc3O2)CC2COC(=O)N2N=C4)cc1` (configuration not stated), the melting point lay in the range of 173 to 175 °C.

For `CCN(CCN(CC)c1ccc(N=O)c(C)c1)c1ccc(N=O)c(C)c1`, the melting point is 157 °C.

As to `CCNC(=O)OC1=C(c2ccccc2)Oc2ccccc2-n2cccc21`, the melting point lay within 74 to 75 °C.

`O=c1c2ccccc2sc2ccc(S(=O)(=O)C(F)(F)F)cc12` registered a melting point of 163 to 164 °C.

Turning to `CC(C)(CO)Cc1cc(C(C)(C)C)c(O)c(C(C)(C)C)c1`, the melting point lay within 84 to 86 °C.

On to `COc1cc(C)c(C(O)c2c(Cl)cnc(Cl)c2C(F)(F)F)c(OC)c1OC` (configuration not stated), for which the melting point fell in the range of 162 to 165 °C.

Molecule `O=C1NC(=O)C(Cc2ccc(C(=O)CCCc3ccccc3)cc2)S1` (configuration not stated) returned a melting point of 120 to 122 °C.

For `Cc1ccc(OCn2c(-c3nonc3NCCC#N)nc3ccccc32)cc1C`, the melting point fell in the range of 132 to 135 °C.

Molecule `CCCCC1(CCn2ccnc2)SCCS1` came in with a melting point of 105 to 108 °C.

For `CCCCn1nc(C)c(C(=O)O)c1Cc1ccc(-c2ccccc2S(=O)(=O)NC(=O)OC(C)(C)C)cc1`, the melting point was 92 to 96 °C.

`Cc1cccc(C)c1NC(=O)CCN1CCN(CCCC(c2ccc(F)cc2)c2ccc(F)cc2)C(C(N)=O)C1` (configuration not stated): the melting point is 121 °C.

On to `Cc1c(CBr)oc2ccc(Cl)cc12`, for which the melting point was in the range of 81 to 82 °C.

Regarding `CCCCn1nc(C(F)(F)CCC)nc1Cc1ccc(-c2ccccc2-c2nnn[nH]2)nc1`, the melting point lay within 135 to 136 °C.

Molecule `CC(C)CNC(=O)c1ccc(C(=O)N2CCC[C@@H]3CCCC[C@H]32)cc1N` (relative stereo) yielded a melting point of 153 to 155 °C.

The molecule `CCCCCCCCCCCCCCCCC1=C(c2cn(C)c3ccccc23)C(=O)NC1=O` registered a melting point of 112 to 114 °C.

Molecule `O=C(Oc1ccc(Br)cc1)c1ccccc1` had a melting point of 98 to 100 °C.

For `CCCc1nc(C(C)(C)O)c(C(=O)O)n1Cc1ccc(-c2ccccc2C(=O)OC(C)(C)C)cc1`, the melting point was in the range of 155 to 157 °C.

In turn, `COc1ccc(C(=O)Oc2ccc(C(=O)O)c(F)c2)cc1C12CC3CC(CC(C3)C1)C2` gave a melting point of 254 to 256 °C.

Consider `CC(C)Cn1nc(-c2ccc(F)c(F)c2)cc(C(=O)O)c1=O`, for which the melting point was in the range of 163 to 164 °C.

As for `CC(=O)c1c(O)cccc1OCC(O)COc1ccc(Cl)cc1` (configuration not stated), the melting point is 112 to 114 °C.

`CCCn1c(=O)c2[nH]c(/C=C/c3ccccc3Cl)nc2n(CCC)c1=O`: the melting point was 269 to 270 °C.

`CCOC(=O)Cn1cc(C(=O)O)c2nc3c(C)cccc3cc2c1=O`: the melting point lay in the range of 277 to 280 °C.

For `NC(=O)c1c(F)ccc(OCc2cc3cc(C(F)(F)F)ccc3s2)c1F`, the melting point fell in the range of 150 to 152 °C.

`O=C(Nc1cc(C(=O)O)cc(-c2ccccc2)c1)OCc1cc2cc(-c3ccccc3)ccc2o1` displayed a melting point of 174 to 175 °C.

Regarding `O=C(OCC1CC(O)C(n2cc(F)c(=O)[nH]c2=O)O1)c1ccccc1` (configuration not stated), the melting point was in the range of 154 to 156 °C.

In turn, `COc1ccc2c(c1)nc1snc(C(=O)c3ncc(C)c(OC)c3C)n12` gave a melting point of 170 to 171 °C.

`Cc1nc(-c2ccccc2F)n(O)c1-c1cccnc1` registered a melting point of 65 to 75 °C.

In turn, `Cc1nc2c(s1)-c1nc(Nc3ccc(O)cc3)ncc1CC2` had a melting point of 268 to 269 °C.

Molecule `CC(=CC(=O)OCCCCCCCCC(=O)O)CC1OCC(CC2OC2C(C)C(C)O)C(O)C1O` (configuration not stated) displayed a melting point of 73 to 75 °C.

On to `O=C(O)CS(=O)(=O)c1cccc(-c2nc(=O)c3ccccc3s2)n1`, for which the melting point lay in the range of 192 to 194 °C.

`CN(C)c1cccc2c(S(=O)(=O)NCCCCn3cnc4c(N)nc5ccccc5c43)cccc12` registered a melting point of 200 to 201 °C.

With `Cn1cccc(O)c1=O`, the melting point fell in the range of 129 to 131 °C.

Consider `CN(C)c1ccc(C(c2cc(C(C)(C)C)c(O)c(C(C)(C)C)c2)N2CCCCC2)cc1` (configuration not stated), for which the melting point lay in the range of 184 to 185 °C.

With `O=S(=O)(c1ccc(O)cc1)c1c(-c2ccccc2)cn2ccccc12`, the melting point came to 234 °C.

On to `CCNC(=O)NCCCNn1c(COCC)nc2c(N)nc3ccccc3c21`, for which the melting point lay within 138 to 141 °C.
